Measured values reported in the NIST ThermoML archive (doi:10.1021/je900691n).

Assay: xn = mol fraction of the nth substance listed
Settings: Liquid, Pycnometric method

COC(=O)OC [dimethyl carbonate] + O=C=O
Settings | mass density [kg/m3]
313.15 K, 12790 kPa, x1 = 0.1484 | 951
313.15 K, 12900 kPa, x1 = 0.0242 | 816
313.15 K, 12950 kPa, x1 = 0.0481 | 856
313.15 K, 13250 kPa, x1 = 0.118 | 940
313.15 K, 13270 kPa, x1 = 0.0242 | 823
313.15 K, 13310 kPa, x1 = 0.1484 | 955
313.15 K, 13450 kPa, x1 = 0.0481 | 863
313.15 K, 13580 kPa, x1 = 0.086 | 911
313.15 K, 13640 kPa, x1 = 0.0242 | 828
313.15 K, 13730 kPa, x1 = 0.118 | 943
313.15 K, 13790 kPa, x1 = 0.1484 | 957
313.15 K, 13960 kPa, x1 = 0.0242 | 833
313.15 K, 13980 kPa, x1 = 0.0481 | 869
313.15 K, 14120 kPa, x1 = 0.086 | 915
313.15 K, 14140 kPa, x1 = 0.0242 | 836
313.15 K, 14270 kPa, x1 = 0.118 | 947
313.15 K, 14430 kPa, x1 = 0.1484 | 961
313.15 K, 14560 kPa, x1 = 0.0242 | 842
313.15 K, 14620 kPa, x1 = 0.0481 | 877
313.15 K, 14750 kPa, x1 = 0.086 | 920
313.15 K, 14950 kPa, x1 = 0.0242 | 847
313.15 K, 15100 kPa, x1 = 0.1484 | 965
313.15 K, 15210 kPa, x1 = 0.0481 | 882
313.15 K, 15220 kPa, x1 = 0.068 | 924
313.15 K, 15230 kPa, x1 = 0.0242 | 851
313.15 K, 15650 kPa, x1 = 0.1484 | 968
313.15 K, 15900 kPa, x1 = 0.0481 | 890
313.15 K, 15930 kPa, x1 = 0.068 | 930
313.15 K, 16400 kPa, x1 = 0.068 | 933
313.15 K, 16470 kPa, x1 = 0.1484 | 972
317.85 K, 8660 kPa, x1 = 0.0242 | 476
317.85 K, 8710 kPa, x1 = 0.0242 | 485
317.85 K, 8720 kPa, x1 = 0.0242 | 490
317.85 K, 8750 kPa, x1 = 0.0242 | 498
317.85 K, 8780 kPa, x1 = 0.0242 | 506
317.85 K, 8820 kPa, x1 = 0.0242 | 517
317.85 K, 8880 kPa, x1 = 0.0242 | 529
317.85 K, 8930 kPa, x1 = 0.0242 | 542
317.85 K, 9000 kPa, x1 = 0.0242 | 555
317.85 K, 9070 kPa, x1 = 0.0242 | 569
317.85 K, 9150 kPa, x1 = 0.0242 | 583
317.85 K, 9250 kPa, x1 = 0.0242 | 599
317.85 K, 9350 kPa, x1 = 0.0242 | 611
317.85 K, 9500 kPa, x1 = 0.0242 | 628
317.85 K, 9710 kPa, x1 = 0.0242 | 646
317.85 K, 9910 kPa, x1 = 0.0242 | 663
318.15 K, 7340 kPa, x1 = 0.1484 | 884
318.15 K, 7630 kPa, x1 = 0.118 | 856
318.15 K, 7820 kPa, x1 = 0.1484 | 889
318.15 K, 7850 kPa, x1 = 0.118 | 859
318.15 K, 8020 kPa, x1 = 0.086 | 802
318.15 K, 8190 kPa, x1 = 0.118 | 864
318.15 K, 8270 kPa, x1 = 0.1484 | 894
318.15 K, 8410 kPa, x1 = 0.086 | 812
318.15 K, 8550 kPa, x1 = 0.0481 | 683
318.15 K, 8610 kPa, x1 = 0.118 | 870
318.15 K, 8700 kPa, x1 = 0.0481 | 693
318.15 K, 8780 kPa, x1 = 0.1484 | 899
318.15 K, 8830 kPa, x1 = 0.086 | 820
318.15 K, 8880 kPa, x1 = 0.0481 | 706
318.15 K, 9130 kPa, x1 = 0.118 | 876
318.15 K, 9140 kPa, x1 = 0.0481 | 721
318.15 K, 9160 kPa, x1 = 0.086 | 827
318.15 K, 9300 kPa, x1 = 0.1484 | 904
318.15 K, 9450 kPa, x1 = 0.0481 | 735
318.15 K, 9580 kPa, x1 = 0.118 | 882
318.15 K, 9760 kPa, x1 = 0.0481 | 748
318.15 K, 9800 kPa, x1 = 0.1484 | 908
318.15 K, 9810 kPa, x1 = 0.086 | 838
318.15 K, 10180 kPa, x1 = 0.118 | 889
318.15 K, 10200 kPa, x1 = 0.0481 | 758
318.15 K, 10260 kPa, x1 = 0.086 | 845
318.15 K, 10270 kPa, x1 = 0.1484 | 912
318.15 K, 10720 kPa, x1 = 0.1484 | 916
318.15 K, 10740 kPa, x1 = 0.0481 | 777
318.15 K, 10750 kPa, x1 = 0.118 | 895
318.15 K, 10820 kPa, x1 = 0.086 | 853
318.15 K, 11190 kPa, x1 = 0.086 | 858
318.15 K, 11230 kPa, x1 = 0.1484 | 920
318.15 K, 11250 kPa, x1 = 0.0481 | 789
318.15 K, 11280 kPa, x1 = 0.118 | 900
318.15 K, 11720 kPa, x1 = 0.1484 | 924
318.15 K, 11740 kPa, x1 = 0.086 | 865
318.15 K, 11770 kPa, x1 = 0.0481 | 800
318.15 K, 11800 kPa, x1 = 0.118 | 905
318.15 K, 12230 kPa, x1 = 0.086 | 871
318.15 K, 12240 kPa, x1 = 0.0481 | 809
318.15 K, 12260 kPa, x1 = 0.1484 | 928
318.15 K, 12280 kPa, x1 = 0.118 | 909
318.15 K, 12690 kPa, x1 = 0.086 | 876
318.15 K, 12720 kPa, x1 = 0.0481 | 818
318.15 K, 12770 kPa, x1 = 0.118 | 913
318.15 K, 12820 kPa, x1 = 0.1484 | 932
318.15 K, 13270 kPa, x1 = 0.086 | 882
318.15 K, 13280 kPa, x1 = 0.0481 | 826
318.15 K, 13290 kPa, x1 = 0.118 | 918
318.15 K, 13410 kPa, x1 = 0.1484 | 936
318.15 K, 13730 kPa, x1 = 0.0481 | 833
318.15 K, 13750 kPa, x1 = 0.118 | 922
318.15 K, 13840 kPa, x1 = 0.086 | 888
318.15 K, 13900 kPa, x1 = 0.1484 | 939
318.15 K, 14240 kPa, x1 = 0.0481 | 841
318.15 K, 14240 kPa, x1 = 0.118 | 925
318.15 K, 14290 kPa, x1 = 0.086 | 893
318.15 K, 14390 kPa, x1 = 0.1484 | 942
318.15 K, 14710 kPa, x1 = 0.0481 | 847
318.15 K, 14720 kPa, x1 = 0.118 | 929
318.15 K, 14830 kPa, x1 = 0.086 | 898
318.15 K, 15140 kPa, x1 = 0.1484 | 947
318.15 K, 15250 kPa, x1 = 0.118 | 933
318.15 K, 15280 kPa, x1 = 0.086 | 902
318.15 K, 15300 kPa, x1 = 0.0481 | 854
318.15 K, 15760 kPa, x1 = 0.086 | 906
318.15 K, 15770 kPa, x1 = 0.1484 | 950
318.15 K, 15820 kPa, x1 = 0.118 | 937
318.15 K, 16250 kPa, x1 = 0.0481 | 865
318.15 K, 16260 kPa, x1 = 0.118 | 940
318.15 K, 16300 kPa, x1 = 0.086 | 910
318.15 K, 16420 kPa, x1 = 0.1484 | 955
323.15 K, 7960 kPa, x1 = 0.1484 | 862
323.15 K, 8290 kPa, x1 = 0.118 | 829
323.15 K, 8310 kPa, x1 = 0.1484 | 866
323.15 K, 8540 kPa, x1 = 0.118 | 833
323.15 K, 8690 kPa, x1 = 0.086 | 762
323.15 K, 8770 kPa, x1 = 0.1484 | 872
323.15 K, 8880 kPa, x1 = 0.086 | 769
323.15 K, 8960 kPa, x1 = 0.118 | 840
323.15 K, 9020 kPa, x1 = 0.0242 | 394
323.15 K, 9080 kPa, x1 = 0.0242 | 401
323.15 K, 9120 kPa, x1 = 0.0242 | 408
323.15 K, 9170 kPa, x1 = 0.0242 | 417
323.15 K, 9180 kPa, x1 = 0.0481 | 607
323.15 K, 9220 kPa, x1 = 0.086 | 779
323.15 K, 9230 kPa, x1 = 0.0242 | 427
323.15 K, 9250 kPa, x1 = 0.1484 | 877
323.15 K, 9260 kPa, x1 = 0.0481 | 617
323.15 K, 9280 kPa, x1 = 0.0242 | 436
323.15 K, 9310 kPa, x1 = 0.118 | 845
323.15 K, 9350 kPa, x1 = 0.0242 | 447
323.15 K, 9410 kPa, x1 = 0.0242 | 458
323.15 K, 9410 kPa, x1 = 0.0481 | 638
323.15 K, 9480 kPa, x1 = 0.0242 | 470
323.15 K, 9550 kPa, x1 = 0.0242 | 482
323.15 K, 9570 kPa, x1 = 0.0481 | 650
